Data published in patent US20220362182A1, “METHODS FOR REVERSING HEPATIC STEATOSIS” (BRIGHTSEED, INC., priority 2020, published 2022).
Entries after “also recorded” stand apart in the source; their conditions may differ. Read-outs that look alike come from different tables or passages of the source.

What was measured:
HNF4α [1] = target: T1, HNF4α (Homo sapiens, UniProt P41235); assay: DARTS assay (HNF4α protease sensitivity) in HepG2 cells; format: binding; parameters: Total cell protein was extracted; endogenous in cells; host or cells: HepG2 cells; details: 40 or 80 μM for 16 h, subtilisin
T1 sequence (P41235 1-474): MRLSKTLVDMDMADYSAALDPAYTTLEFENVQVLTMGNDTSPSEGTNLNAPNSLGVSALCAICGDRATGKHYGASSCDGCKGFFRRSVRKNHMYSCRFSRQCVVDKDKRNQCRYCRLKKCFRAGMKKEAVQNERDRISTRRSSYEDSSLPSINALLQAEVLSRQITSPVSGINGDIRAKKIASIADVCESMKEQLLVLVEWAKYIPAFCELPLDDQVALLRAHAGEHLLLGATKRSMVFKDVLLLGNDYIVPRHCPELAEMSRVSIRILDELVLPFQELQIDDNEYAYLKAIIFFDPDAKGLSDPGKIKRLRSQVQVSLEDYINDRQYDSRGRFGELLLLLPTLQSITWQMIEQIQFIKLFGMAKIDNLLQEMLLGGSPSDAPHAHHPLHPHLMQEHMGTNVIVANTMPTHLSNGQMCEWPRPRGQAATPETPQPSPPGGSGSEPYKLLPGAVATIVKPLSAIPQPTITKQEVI
Procedure: DARTS assays were conducted as described in the art. HepG2 cells were treated with DMSO, BI6015, NCT, NFT at a concentration of 40 or 80 μM for 16 hr. Total cell protein was extracted and measured by BCA protein assay (Thermo Scientific). Each sample was split into two aliquots for proteolysis without (−) or with (+) Subtilisin (Sigma-Aldrich). Forty […] of cell lysate was incubated with or without protease (40 ng/ml subtilisin) for 35 min at room temperature.
Whole-cell extracts were prepared by incubation in RIPA buffer (Invitrogen) containing protease inhibitors (Calbiochem, San Diego, Calif.). Protein ([…]) was separated on 12% or 16% Tri-Glycine gels (Invitrogen) and transferred to Immobilon P membrane (0.2 μm pore, Millipore). After 1 h in phosphate-buffered saline-Tween (PBST) with 3% milk, membrane was incubated with antibodies to HNF4α (mouse, Novus, 1:1000), LC3B (rabbit, Novus, 1:500), p62 (SQSTM1, mouse, Santa Cruz, 1:1000) or β-actin (mouse, Santa Cruz, 1:2000), followed by secondary antibody conjugated to horseradish peroxidase (1:5000, Jackson Immune).

INS mRNA = assay: insulin mRNA qPCR in T6PNE cells; format: cell-based, human
Procedure: (§1) Quantitative PCR (Q-PCR) from in vitro cell culture experiments used total RNA purified using RNeasy Kits (Qiagen). For liver tissue samples, total RNA was isolated using Trizol (Invitrogen) and prepared for RNAseq (mouse liver DMSO and NCT, N=3). cDNA was amplified using 3 μg of total RNA using qScript cDNA SuperMix (Quanta BioSciences, Beverly, Mass., USA). QPCR analysis was performed using SYBR® Select Master Mix (Applied Biosystems) and ABI 7900HT (Applied Biosystems, Thermo Fisher Scientific). The Ct values of mRNA expression were then normalized to the 18 s rRNA values and are expressed as fold change over samples from mice fed normal chow for in vivo experiments or DMSO controls for cell culture experiments.

murine PK = details: mouse, in vivo
Procedure: Murine PK was conducted by WuXi AppTec (Shanghai, China). C57BL/6 male mice of age 7-9 weeks were obtained from SLAC Laboratory Animal Co (Shanghai, China). Mice were fasted for 12 h prior to compound administration. Oral gavage was used for PO dosing. For IV dosing, compound was administered by tail vein injection. For compound concentration determination, 25 μL of blood was collected from the submandibular or saphenous vein and processed for plasma. Plasma concentration of compound was determined by LC-MS/MS.

estrogenic activity = assay: assay for estrogenic activity; format: cell-based; details: false-positive counter assay
HNF4α mRNA = HNF4α mRNA qPCR in T6PNE cells; format: cell-based, human
Procedure: as §1

PPARγ receptor = target: T2, PPARγ receptor (Homo sapiens, UniProt P37231); assay: assay for PPARγ agonist activity; format: cell-based; details: false-positive counter assay
T2 sequence (P37231 1-505): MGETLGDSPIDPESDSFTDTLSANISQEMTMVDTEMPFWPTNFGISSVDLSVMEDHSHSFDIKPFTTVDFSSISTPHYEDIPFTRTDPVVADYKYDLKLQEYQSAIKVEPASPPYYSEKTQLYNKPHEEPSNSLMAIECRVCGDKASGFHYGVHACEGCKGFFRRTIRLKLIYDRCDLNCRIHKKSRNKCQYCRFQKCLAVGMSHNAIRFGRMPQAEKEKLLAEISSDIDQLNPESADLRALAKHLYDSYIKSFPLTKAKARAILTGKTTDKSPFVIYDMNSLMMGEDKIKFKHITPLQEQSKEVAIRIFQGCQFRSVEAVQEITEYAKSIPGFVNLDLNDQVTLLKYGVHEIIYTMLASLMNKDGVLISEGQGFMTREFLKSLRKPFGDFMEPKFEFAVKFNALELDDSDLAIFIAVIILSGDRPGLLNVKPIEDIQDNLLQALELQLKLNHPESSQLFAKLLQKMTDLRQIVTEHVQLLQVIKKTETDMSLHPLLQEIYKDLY

HNF4α [2] = target: T1, HNF4α; assay: T6PNE insulin promoter assay (human insulin promoter-GFP transgene); format: cell-based; parameters: endogenous in cells; host or cells: T6PNE cells; details: T6PNE cells; for insulin promoter activity / HNF4α activation: GFP-positive cells relative to DMSO; for dose responsiveness in the INS promoter assay: multiple doses
Procedure: The T6PNE insulin promoter assay has been described previously and was performed here with slight modifications as follows: T6PNE cells were seeded at 200 cells per well in 384-well tissue culture plates (Greiner Bio-One) in the presence of 0.5 μM tamoxifen. Compounds described herein in DMSO were dispensed with an Echo 555 Acoustic Liquid Handler (Beckman Coulter). Three days after compound addition, cells were fixed in 4% paraformaldehyde (USBio) for 15 min and stained with DAPI (0.167 μg/ml, Invitrogen). Blue (DAPI) and green (GFP) channels were imaged using a Celigo imaging cytometer (Nexcelom Bioscience). The number of GFPpositive cells was normalized to the DAPI-positive cell number and fold change calculated relative to the DMSO control.
T6PNE cells were maintained in RPMI (5.5mM glucose, Corning) supplemented with 10% fetal bovine serum (FBS, Sigma-Aldrich) and 1% penicillin-streptomycin (pen-strep, Gibco). Cells were maintained in 5% CO2 at 37° C. For the insulin promoter assay, 0.5 μM tamoxifen (Sigma-Aldrich) was added to T6PNE cell culture media. HepG2 or HeLa cells were cultured in DMEM (high glucose, Corning) supplemented with 10% FBS and 1% pen-strep and maintained at 5% CO2, 37° C.

[3] = animal cells and mice; cited from earlier work

| Compound | HNF4α proteolytic sensitivity / conformational change (HNF4α [1]) | INS mRNA (INS mRNA) | oral bioavailability (murine PK) | estrogenic activity (estrogenic activity) | HNF4α mRNA (HNF4α mRNA) | PPARγ receptor agonist activity (PPARγ receptor) | insulin promoter activity / HNF4α activation (HNF4α [2]) | dose responsiveness in the INS promoter assay (HNF4α [2]) | anti-inflammatory properties [3] | HNF4α mRNA (HNF4α mRNA; listed as N-trans-caffeoyltyramine) |
| --- | --- | --- | --- | --- | --- | --- | --- | --- | --- | --- |
| COc1cc(/C=C/C(=O)NCCc2ccc(O)cc2)ccc1O [NFT, N-trans feruloyltyramine] | induced a change in HNF4α proteolytic sensitivity | increased | poor oral bioavailability | no estrogenic | increased; also recorded: induced HNF4α expression | no estrogenic or PPARγ receptor agonist activity | more potent activators; also recorded: approximately as active as alverine; also recorded: much more potent | exhibited dose responsiveness | anti-inflammatory properties |  |
| O=C(/C=C/c1ccc(O)c(O)c1)NCCc1ccc(O)cc1 [NCT, N-trans-caffeoyltyramine] | induced a change in HNF4α proteolytic sensitivity | increased | poor oral bioavailability | no estrogenic | increased; also recorded: induced HNF4α expression | no estrogenic or PPARγ receptor agonist activity | more potent activators; also recorded: strongest inducer of insulin promoter activity; also recorded: much more potent | exhibited dose responsiveness | anti-inflammatory properties | induces the expression of HNF4a mRNA |
